From article PMC3351833 (Biochemical Journal, 2011)

Tests used:
CaM = conditions: read-out: Kd of CDZ as CaM inhibitor; cited from earlier work
Cx50 gap junctions = assay type: cell-based, mouse; conditions: 1 μM peptide in both whole-cell patch pipettes; 1 μM ionomycin + 1.8 mM [Ca2+]o; Cx50-N2a cell pairs

Compound	Kd (CaM)	Share of the Ca2+/CaM-dependent decline in Cx50 Gj prevented (Cx50 gap junctions)
Clc1ccc(C(c2ccc(Cl)cc2)n2cc[n+](CC(OCc3ccc(Cl)cc3Cl)c3ccc(Cl)cc3Cl)c2)cc1 (centres unmarked) [CDZ, calmidazolium]	~1 µM	
FKLYKCISFGGTEITTRSHVLTKKRL [SCx50p]		20%
